In one assay the target is T1, Topoisomerase II (Homo sapiens, UniProt P11388).
T1 construct: purchased
Kind of assay: Topoisomerase II assay. It is filed as biochemical. Set-up: key to Inhibitory activity Topoisomerase II: ∘: Inhibitory activity is present; Δ: Weak inhibitory activity is present; x: No inhibitory activity is present. The method, then: (§1) The inhibitory action of a test substance (Compound 3) on Topoisomerase I and Topoisomerase II was examined.
2. Topoisomerase II Assay
Assay was performed in accordance with the attachment to Topoisomerase II Assay Kit, as follows.
(1) 10×Topo II Incomplete Assay A and 10×ATP Buffer B were mixed in equal amounts to prepare 5× Complete Assay Buffer (prepared when used).
(2) Assay solution was prepared in accordance with the following table.
(3) Incubated at 37° C. for 30 minutes (4) 5 μl of 5× Stop Buffer/gel loading dye was added (5) 1 μl of 1.3 mg/mL protease K solution (prepared with distilled water) was added (final concentration of protease K is 50 μg/mL) (6) Incubated at 37° C. for 20 minute (7) Total amount was applied to 1% agarose gel (containing EtBr) and analyzed by electrophoresis using a single concentration TAE buffer (prepared with distilled water). (8) After electrophoresis, the 1% agarose gel was stained with 0.5 μg/mL EtBr solution (prepared with single concentration TAE buffer) (9) Irradiated with UV ray and photographed.

In assay [1] the test system is lumen formed in angiogenesis kit with VEGF-A. Kind of assay: Angiogenesis inhibitory action (angiogenesis kit, VEGF-A, CD31 staining, area and length of lumen). The assay is classed as cell-based. The following applies: 5 μg/mL, VEGF-A 10 ng/mL, 11 days. The text has this: Angiogenesis Inhibitory Action
The angiogenesis inhibitory action of a test substance (Compound 3) was examined by use of measuring reagents and analysis software described below.
1. Measuring Reagents and Analysis Software
Angiogenesis kit (Cat. No. KZ-1000), manufactured by KURABO INDUSTRIES LTD.
Angiogenic agent VEGF-A (Cat. No. KZ-1350), manufactured by KURABO INDUSTRIES LTD.
Lumen staining kit (for staining CD31, Cat. No. ZHA-1225), manufactured by KURABO INDUSTRIES LTD.
Image analysis software: Angiogenesis Image Analyzer V2.0, manufactured by KURABO INDUSTRIES LTD.
Herein, as a culture medium, angiogenesis specific medium-2 (hereinafter referred to as the medium) provided in the above angiogenesis kit.
Positive control: Medium containing VEGF-A (10 ng/mL)
Negative control: Medium containing VEGF-A (10 ng/mL) and Suramin (50 μmol/L)
3. Preparation of Samples
A test substance was weighed at the starting day of a test. The medium was added so as to be 500 μg/mL. Sonication was performed while heating at 37° C. for 60 minutes to be dissolved. Then, filtration was performed by a 0.22 μm filter. The 500 μg/mL-solution was serially diluted with the medium in a common ratio of 10. […]
The pictures were subjected to image analysis by use of image analysis software, Angiogenesis Image Analyzer V 2.0, and the area and length of the lumen formed were measured.

The next assay addresses T2, Topoisomerase I (Homo sapiens, UniProt P11387).
T2 sequence (P11387 1-765): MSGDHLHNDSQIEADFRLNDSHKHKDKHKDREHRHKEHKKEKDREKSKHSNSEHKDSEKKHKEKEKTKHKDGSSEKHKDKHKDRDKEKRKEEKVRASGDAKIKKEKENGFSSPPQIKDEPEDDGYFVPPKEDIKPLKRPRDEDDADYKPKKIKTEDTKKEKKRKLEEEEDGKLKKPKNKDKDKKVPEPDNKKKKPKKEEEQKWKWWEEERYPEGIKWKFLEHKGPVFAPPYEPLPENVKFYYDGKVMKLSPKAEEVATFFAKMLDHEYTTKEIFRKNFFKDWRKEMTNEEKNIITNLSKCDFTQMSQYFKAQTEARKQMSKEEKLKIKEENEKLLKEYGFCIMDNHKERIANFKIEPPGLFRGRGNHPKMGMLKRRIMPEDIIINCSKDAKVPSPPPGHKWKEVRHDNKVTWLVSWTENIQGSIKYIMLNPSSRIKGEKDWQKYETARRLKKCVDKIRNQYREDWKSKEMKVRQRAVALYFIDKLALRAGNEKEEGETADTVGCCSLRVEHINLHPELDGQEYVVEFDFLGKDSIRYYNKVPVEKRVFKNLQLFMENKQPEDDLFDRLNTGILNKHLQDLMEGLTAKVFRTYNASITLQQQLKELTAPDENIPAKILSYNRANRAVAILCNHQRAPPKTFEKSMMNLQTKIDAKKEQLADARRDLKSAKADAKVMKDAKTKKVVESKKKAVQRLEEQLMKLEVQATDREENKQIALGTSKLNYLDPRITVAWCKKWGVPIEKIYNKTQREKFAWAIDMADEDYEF
Kind of assay: Topoisomerase I assay. The assay is classed as biochemical. Details: key to Inhibitory activity Topoisomerase I: ∘: Inhibitory activity is present; Δ: Weak inhibitory activity is present; x: No inhibitory activity is present. How it is done:
as §1
Topoisomerase I (4 units) was subjected to the following assay performed in the assay conditions, which were determined by a preliminary examination, for a reaction time of 2 hours.
(1) An assay solution was prepared in accordance with the following table.

The values that follow come from patent US9682931B2, “Aryloyl(oxy or amino)pentafluorosulfanylbenzene compound, pharmaceutically acceptable salt thereof, and prodrugs thereof” (UBE INDUSTRIES, LTD., priority 2013, dated 2017).

T1 sequence (P11388 whole entry): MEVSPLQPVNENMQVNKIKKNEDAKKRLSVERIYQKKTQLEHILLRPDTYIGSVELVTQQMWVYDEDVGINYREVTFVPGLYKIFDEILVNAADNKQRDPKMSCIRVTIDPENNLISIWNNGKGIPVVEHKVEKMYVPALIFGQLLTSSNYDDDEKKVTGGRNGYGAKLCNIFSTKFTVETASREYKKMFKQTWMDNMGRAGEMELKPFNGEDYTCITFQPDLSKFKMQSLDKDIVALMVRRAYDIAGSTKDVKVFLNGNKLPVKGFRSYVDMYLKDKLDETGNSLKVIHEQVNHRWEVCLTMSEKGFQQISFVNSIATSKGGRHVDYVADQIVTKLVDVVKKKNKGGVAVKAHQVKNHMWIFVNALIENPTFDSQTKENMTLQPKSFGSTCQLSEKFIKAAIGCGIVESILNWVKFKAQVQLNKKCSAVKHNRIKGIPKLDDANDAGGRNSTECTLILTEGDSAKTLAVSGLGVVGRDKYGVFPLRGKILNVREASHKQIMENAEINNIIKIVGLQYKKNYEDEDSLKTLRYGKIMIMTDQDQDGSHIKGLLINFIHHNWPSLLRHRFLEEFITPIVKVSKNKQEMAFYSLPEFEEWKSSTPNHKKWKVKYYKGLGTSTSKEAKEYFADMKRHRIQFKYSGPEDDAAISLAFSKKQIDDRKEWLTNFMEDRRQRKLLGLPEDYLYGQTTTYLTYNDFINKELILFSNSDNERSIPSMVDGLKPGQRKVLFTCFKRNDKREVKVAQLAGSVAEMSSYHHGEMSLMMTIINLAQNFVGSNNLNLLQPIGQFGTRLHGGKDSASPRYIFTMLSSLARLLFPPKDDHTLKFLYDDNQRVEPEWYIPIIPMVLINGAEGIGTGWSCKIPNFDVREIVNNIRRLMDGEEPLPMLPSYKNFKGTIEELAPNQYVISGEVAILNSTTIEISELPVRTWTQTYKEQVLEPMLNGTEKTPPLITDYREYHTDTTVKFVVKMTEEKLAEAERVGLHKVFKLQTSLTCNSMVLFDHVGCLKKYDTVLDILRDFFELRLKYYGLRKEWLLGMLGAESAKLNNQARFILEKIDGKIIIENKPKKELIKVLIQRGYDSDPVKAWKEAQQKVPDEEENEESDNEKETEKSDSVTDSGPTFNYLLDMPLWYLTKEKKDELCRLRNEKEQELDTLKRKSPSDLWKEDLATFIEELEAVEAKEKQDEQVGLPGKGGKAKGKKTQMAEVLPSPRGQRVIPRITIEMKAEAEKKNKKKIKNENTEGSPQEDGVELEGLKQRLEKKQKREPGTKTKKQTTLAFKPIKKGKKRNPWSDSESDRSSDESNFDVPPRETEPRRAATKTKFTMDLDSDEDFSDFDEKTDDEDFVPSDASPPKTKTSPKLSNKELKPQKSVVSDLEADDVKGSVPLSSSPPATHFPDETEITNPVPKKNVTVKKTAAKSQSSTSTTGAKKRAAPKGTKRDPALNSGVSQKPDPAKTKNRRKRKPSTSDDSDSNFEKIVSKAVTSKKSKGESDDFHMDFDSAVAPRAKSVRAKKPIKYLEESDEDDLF

In the case of `O=C(Nc1ccc(S(F)(F)(F)(F)F)cc1)c1cc(O)c(O)c(O)c1` [Compound 3, 4-(3,4,5-trihydroxybenzoylamino)pentafluorosulfanylbenzene], at Topoisomerase II (5, 50 and 500 μg/mL), the “Topoisomerase II inhibitory activity” value was “inhibitory activity was observed”. Moreover, the “Inhibitory activity Topoisomerase II” value on Topoisomerase II (final concentration 0.5 μg/mL) is “x”; at Topoisomerase II (final concentration 5 μg/mL), “∘”; at Topoisomerase II (final concentration 50 μg/mL) it was “∘”; on Topoisomerase II (final concentration 500 μg/mL), “∘”. For the same molecule, in assay [1], the “angiogenesis inhibitory effect (area and length of lumen)” value is on record as “angiogenesis inhibitory effect was confirmed”. For the same molecule, the “Topoisomerase I inhibitory activity” value at Topoisomerase I (500 μg/mL) is “inhibitory activity was confirmed”. In addition, the “Inhibitory activity Topoisomerase I” value at Topoisomerase I (final concentration 0.5 μg/mL) is “x”; on Topoisomerase I (final concentration 5 μg/mL), “x”; at Topoisomerase I (final concentration 50 μg/mL) it was “x”; at Topoisomerase I (final concentration 500 μg/mL) it was “∘”.
